The subject of test [1] is highly pathogenic avian influenza virus H5N1: A/ws/Hokkaido/1/08 (clade 2.3), A/ws/Mongolia/3/05 (clade 2.2), A/Vietnam/UT3040/04 (clade 1). In kind it is cell-based.
The test system of test [2] is influenza virus H5N1 Vac-3. The format is cell-based. The following applies: for anti-viral effect compared with zanamivir (Relenza): 0.01, 0.1, 1 μM.
Test [3] deals with influenza virus H2N2-Adachi strain. In kind it is cell-based.
For test [4], the system named is influenza virus H1N1-pdm 2619. In kind it is cell-based.
Test [5] concerns highly pathogenic avian influenza virus H5N1 A/whooper swan/Hokkaido/1/08 (5×MLD50). Further details: species or system mice. The settings on record: mouse, in vivo.

Consider “Cyclo(Ac-Trp-Thr-MeGly-Asp-MePhe-MePhe-Ser-MeSer-His-Tyr-Thr-Val-Pro-Arg-Cys)-amide [iHA-100]”, for which, in test [1], the “effect compared with iHA-24” value is on record as “markedly higher than that of iHA-24” and the “effect compared with zanamivir” value is on record as “on the same level as that of zanamivir”. For the same molecule, in test [2], the “anti-viral effect compared with positive control iHA-24” value is recorded as “markedly higher than that of the peptide iHA-24” and the “anti-viral effect compared with zanamivir (Relenza)” value is “comparable to that of zanamivir”. Also, in test [3], the “anti-viral effect compared with zanamivir (Relenza)” value is reported as “comparable to that of zanamivir” and the number of plaques entry was “dose-dependently decreased the number of plaques”. Further, the “anti-viral effect compared with zanamivir (Relenza)” value in test [4] is on record as “comparable to that of zanamivir”. The lethal rate entry in test [5] is “a decrease in lethal rate is observed”.

“Cyclo(Ac-Trp-Thr-MeGly-Thr-His-Val-Arg-Tyr-Thr-Val-MePhe-Asn-MeAla-Ser-Cys)-amide [iHA-103]”: in test [2], the “anti-viral effect compared with positive control iHA-24” value is on record as “markedly higher than that of the peptide iHA-24” and the “anti-viral effect compared with zanamivir (Relenza)” value is “comparable to that of zanamivir”.

In the case of `CC(=O)N[C@H]1[C@H]([C@H](O)[C@H](O)CO)OC(C(=O)O)=C[C@@H]1N=C(N)N` [zanamivir], in test [5], the lethality result is reported as “a dead individual is found” and the treatment effect result is “no treatment effect is obtained”.

Regarding “Cyclo(Ac-Trp-Ser-MePhe-MeGly-His-Val-His-Tyr-Ser-Val-MePhe-Asn-MeAla-Val-Cys)-amide [iHA-102]”, in test [2], the “anti-viral effect compared with positive control iHA-24” value is reported as “markedly higher than that of the peptide iHA-24” and the “anti-viral effect compared with zanamivir (Relenza)” value was “comparable to that of zanamivir”.
